Laboratory results: PMC10135378, “Synthesis of Novel N-Heterocyclic Carbene-Ruthenium (II) Complexes, “Precious” Tools with Antibacterial, Anticancer and Antioxidant Properties” (Antibiotics, 2023)

Columns and labels:
MDA-MB-231 cells = experiment: TUNEL assay, apoptosis; assay type: cell-based, human; conditions: complexes at their IC50 values, 24 h
Method: Thus, using the TUNEL assay we determined whether the Ru-NHC complexes RANHC-V and -VI were able to trigger apoptosis in the MDA-MB-231 cells. The latter were first exposed to the Ru complexes, used at their IC50 values for 24 h, and then subjected to the rTdT enzyme, as indicated in the experimental section.
A TUNEL assay was used for cells apoptosis detection, following the manufacturer’s protocols (CF™488A TUNEL Assay Apoptosis Detection Kit, Biotium, Hayward, CA, USA), with some changes. Briefly, cells were seeded and then processed, as described. DAPI (0.2 μg/mL, Sigma Aldrich, Milan, Italy) staining was adopted for nuclei. A fluorescence microscope (Leica DM 6000) was used for fluorescence detection (20x magnification). LAS-X software was used to acquire and process all the images that are representative of three different experiments.
Figure 5 TUNEL assay. MDA-MB-231 breast cancer cells were treated with Ru-NHC complexes RANHC-V and -VI at their IC50 values or with the vehicle (CTRL) for 24 h. Then, cells were incubated with rTdT enzyme and then observed and imaged under an inverted fluorescence microscope at 20× magnification (see Materials and Methods section). Panels (A): DAPI (λex/λem = 350/460 nm); Panels (B): CF^TM488A (λex/λem = 490/515 nm); Panels (C): show the overlay. Fields are representative of three independent experiments.

human topoisomerase I = biological target: T1, human topoisomerase I (Homo sapiens, UniProt P11387); experiment: hTopo I relaxation assay; assay type: biochemical; conditions: 10 µM, 2 h at 37 °C, supercoiled pHOT1 substrate
T1 construct: purchased TopoGEN, Port Orange, FL, USA
T1 sequence (P11387 1-765): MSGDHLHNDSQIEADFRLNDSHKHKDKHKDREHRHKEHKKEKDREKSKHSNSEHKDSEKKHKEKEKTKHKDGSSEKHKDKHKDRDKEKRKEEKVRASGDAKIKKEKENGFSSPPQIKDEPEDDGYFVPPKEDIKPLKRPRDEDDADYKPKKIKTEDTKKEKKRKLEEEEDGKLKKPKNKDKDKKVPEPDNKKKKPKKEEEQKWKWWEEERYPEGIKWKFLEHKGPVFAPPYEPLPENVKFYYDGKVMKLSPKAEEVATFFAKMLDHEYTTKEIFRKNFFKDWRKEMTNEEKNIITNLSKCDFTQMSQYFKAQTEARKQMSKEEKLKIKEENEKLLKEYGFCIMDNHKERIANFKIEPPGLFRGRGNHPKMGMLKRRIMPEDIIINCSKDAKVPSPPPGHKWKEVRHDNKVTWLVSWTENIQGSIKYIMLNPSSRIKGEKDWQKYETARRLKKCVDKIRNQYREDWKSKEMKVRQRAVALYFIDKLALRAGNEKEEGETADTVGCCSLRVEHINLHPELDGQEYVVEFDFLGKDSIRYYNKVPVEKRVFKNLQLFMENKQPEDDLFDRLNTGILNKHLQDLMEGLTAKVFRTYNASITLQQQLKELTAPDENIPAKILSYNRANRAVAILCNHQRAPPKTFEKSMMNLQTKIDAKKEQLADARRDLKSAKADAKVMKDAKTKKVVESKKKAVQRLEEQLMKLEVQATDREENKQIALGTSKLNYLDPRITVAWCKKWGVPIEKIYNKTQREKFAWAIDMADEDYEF
From the text: We performed the hTopo I relaxation assay using as a substrate the supercoiled plasmid pHOT1 and exposing the enzyme to our selected complexes or vehicle. […] Indeed, in lanes 4 and 5, corresponding to the enzymatic reactions in the presence of complexes RANHC-V or -VI, only the supercoiled DNA was present, noticeable as a single band in the lower portion of the agarose gel. Contrarily, in the CTRL (vehicle) reaction (Figure 3, lane 3), multiple bands related to the relaxed DNA products were detected.
hTopoI relaxation assays were done using the supercoiled pHOT1 as substrate, with the recombinant hTopoI (TopoGEN, Port Orange, FL, USA) and compounds RANHC-V and -VI or DMSO (CTRL) following the manufacturer’s protocol (TopoGEN, Port Orange, FL, USA), with some changes.
Figure 3 Human topoisomerase I […] assay. hTopo I was incubated with the vehicle alone (CTRL) or with the tested complexes RANHC-V and -VI at 10 µM for 2 h at 37 °C, using the supercoiled DNA pHOT1 as substrate. 1, relaxed DNA marker; 2, pHOT1; 3, CTRL (DMSO); 4 and 5, Ru-NHC complexes RANHC-V and -VI (10 µM), respectively. The image is representative of three separate experiments.

Structure (SMILES) | apoptosis (TUNEL) (MDA-MB-231 cells) | inhibition of hTopo I activity (human topoisomerase I)
COC(Cn1c(Cl)c(Cl)n(C)[c]1=[Ru]([Cl])[Cl])c1ccccc1.Cc1ccc(C(C)C)cc1 (stereo not shown) [RANHC-V] | TUNEL-positive | totally inhibit
COC(Cn1[c](=[Ru]([Cl])[Cl])n(C)c2ccccc21)c1ccccc1.Cc1ccc(C(C)C)cc1 (stereo not shown) [RANHC-VI] | TUNEL-positive | totally inhibit
